Test results: patent US20260102340A1, “Therapeutic Formulation” (1000739373 Ontario Ltd., priority 2022, published 2026)

Experiment: Visual solubility of formulations packaged in glass bottles
Format: physicochemical
Conditions: 100 μg/50 μl in 12% w/w ethanol and HFA 134a, T=5° C. and T=20° C.

Visual solubility in glass bottles: confirmed visually
Compound: CCCC1O[C@@H]2C[C@H]3[C@@H]4CCC5=CC(=O)C=C[C@]5(C)[C@H]4[C@@H](O)C[C@]3(C)[C@]2(C(=O)CO)O1 (stereo partly shown) [Budesonide]
